Each structure is given as a SMILES string.

Data set [1] has as its system inflammasome priming (NLRP3, caspase-1, IL-1β, TNF-α, IL6, NLRC4 expression). The data set can be described thus: In-vivo assessment of C77: RNA expression of inflammatory genes in mouse brain. Set-up: species or system WT C57BL/6J mice. As to conditions: 50 mg/kg 2 hours before LPS administration. As to the method:
(§1) Gene expression analysis. RNA was isolated from frontal cortex from C57BL/6J mice or from THP1 human cultures using the RNeasy Mini Kit (QIAGEN, Hilden, Germany), following the recommendations of the manufacturer. RNA concentration was determined, and cDNA was synthesized using the High-Capacity cDNA Reverse Transcription Kit with RNase Inhibitor (applied biosystems™). The expression levels of inflammatory genes—NLRP3, caspase-1, IL-1β, TNF-α, NLRC4, IL-18, and IL6—were determined in 4 replicates through PowerUp SYBER Green Master Mix (Thermofisher) using an ABI PRISM […] Sequence Detection System. Hypoxanthine phosphoribosyltransferase (HPRT) was used as an internal control in samples from mouse brains, and GAPDH in the case of THP1 lysates. Gene expression levels were normalized to control samples (mice or THP1 cells treated with PBS).
(§2) Animals used in in-vivo assessments. WT C57BL/6J mice (stock #000664) were obtained from The Jackson Laboratory. Mice were housed in groups of five animals per cage on a 12:12 hours light/dark cycle. Water and food were provided ad libitum. 8-10 weeks males were used for experiments. All procedures were approved by the Institutional Animal Care and use Committee of the Icahn School of Medicine at Mount Sinai.
In-vivo assessment of C77. The ability of C77 to inhibit NLRP3 in-vivo was evaluated using WT C57BL/6J mice. […]

The target in data set [2] is T1, Human recombinant NLRP3 protein (Homo sapiens, UniProt Q96P20).
T1 construct: purchased BPS Bioscience, San Diego CA
Description: Inhibition of the NLRP3 ATPase activity (cell-free, ADP-Glo). The class given is biochemical. To be noted: isolated protein, 10 μM ATP. As to the method:
Inhibition of the NLRP3 ATPase activity. The efficacy of C77 to inhibit ATP hydrolysis by NLRP3 was directly assayed using a cell-free assay. Human recombinant NLRP3 protein (BPS Bioscience, San Diego CA) was incubated at 37° C. with different concentrations of C77 for 20 min, as previously described (Cocco, M., et al. (2017) Development of an Acrylate Derivative Targeting the NLRP3 Inflammasome for the Treatment of Inflammatory Bowel Disease. J. Med. Chem. 60, 3656-3671). 10 μM ultrapure ATP was then added, and reaction mixtures were further incubated for 45 min. ATP conversion into ADP was determined using the ADP-Glo Kinase Assay (Promega), following the recommendations of the manufacturer, in a SpectraMax i3x Multimode Detection Platform.
(ADP-Glo turns the ADP formed in a reaction into a luminescent signal.)

In data set [3] the test system is NLRP3, caspase-1, IL-1β, IL-6, IL-8, and TNF-α gene expression. The data set can be described thus: Gene expression analysis in cell cultures (FIG. 3C). It is filed as cell-based, human. As to the method: as §1
A further data set concerns microglia cultures. The data set can be described thus: Cell viability assay (CytoTox 96 cytotoxicity). It is filed as cell-based, murine. As to the method:
NLRP3 inflammasome activation assay. Primary microglia cultures were incubated with the compounds that inhibited IL-1β production in THP1 macrophages. Cells pretreated with 100 μM of the compounds—or with the same DMSO volume, in the case of control samples—were primed with 400 ng/ml LPS for 3 hours, and activated with 4.5 mM ATP for 45 minutes or […] nigericin for 1 hour. Dose-response curves were conducted by incubating microglia cultures with different concentrations of the selected compounds, ranging from 0.001 to 100 μM, 1 hour before NLRP3 activation with LPS and ATP. Supernatants were collected for IL-1β and toxicity assessments.
Cell viability assays. The cytotoxic effect of the compounds identified by in-vitro screening was assayed with the Cyto Tox 96® NonRadioactive Cytotoxicity Assay (Promega), following the recommendations of the manufacturer.

For another data set, the system named is NLRP3. The data set can be described thus: In-vivo assessment of C77: brain cytokines in LPS-treated mice. Set-up: species or system WT C57BL/6J mice. As to the method:
Cytokine quantification. IL-1β in cell supernatants and brain tissue samples—after the different treatment groups—was quantified using the Mouse IL-1 beta/IL-1F2 DuoSet ELISA kit (R&D systems), IL-6 in cell culture supernatant was measured through the Mouse IL-6 ELISA kit (ThermoFisher), TNF-α in cell culture supernatants was determined using the Mouse TNF-alpha DuoSet ELISA (R*D systems), and IL-18 in brain tissue was measured through the IL-18 Mouse ELISA Kit (Invitrogen) following the manufacturers' recommended protocol. IL-1β precursor and cleaved IL-1β in the FC of mice treated with vehicles, LPS, or C77-LPS was assessed by western blot. All samples were run in technical duplicates.
as §2
In-vivo assessment of C77. The ability of C77 to inhibit NLRP3 in-vivo was evaluated using WT C57BL/6J mice. C77 (50 mg/kg), or the same volume of DMSO vehicle, was intraperitoneally injected 2 hours before of LPS (15 mg/kg) or vehicle (PBS) administration. 1.5 hours later, the animals were sacrificed and their brain was isolated. Cortex, frontal cortex, hippocampus, and cerebellum regions from the right hemisphere were obtained for IL-1β analysis. The left hemisphere was used for gene expression analysis. N=5 animals per group.

Where [4] appears, read: 50 mg/kg IP 2 hours before 15 mg/kg LPS IP.

T1 sequence (Q96P20 whole entry): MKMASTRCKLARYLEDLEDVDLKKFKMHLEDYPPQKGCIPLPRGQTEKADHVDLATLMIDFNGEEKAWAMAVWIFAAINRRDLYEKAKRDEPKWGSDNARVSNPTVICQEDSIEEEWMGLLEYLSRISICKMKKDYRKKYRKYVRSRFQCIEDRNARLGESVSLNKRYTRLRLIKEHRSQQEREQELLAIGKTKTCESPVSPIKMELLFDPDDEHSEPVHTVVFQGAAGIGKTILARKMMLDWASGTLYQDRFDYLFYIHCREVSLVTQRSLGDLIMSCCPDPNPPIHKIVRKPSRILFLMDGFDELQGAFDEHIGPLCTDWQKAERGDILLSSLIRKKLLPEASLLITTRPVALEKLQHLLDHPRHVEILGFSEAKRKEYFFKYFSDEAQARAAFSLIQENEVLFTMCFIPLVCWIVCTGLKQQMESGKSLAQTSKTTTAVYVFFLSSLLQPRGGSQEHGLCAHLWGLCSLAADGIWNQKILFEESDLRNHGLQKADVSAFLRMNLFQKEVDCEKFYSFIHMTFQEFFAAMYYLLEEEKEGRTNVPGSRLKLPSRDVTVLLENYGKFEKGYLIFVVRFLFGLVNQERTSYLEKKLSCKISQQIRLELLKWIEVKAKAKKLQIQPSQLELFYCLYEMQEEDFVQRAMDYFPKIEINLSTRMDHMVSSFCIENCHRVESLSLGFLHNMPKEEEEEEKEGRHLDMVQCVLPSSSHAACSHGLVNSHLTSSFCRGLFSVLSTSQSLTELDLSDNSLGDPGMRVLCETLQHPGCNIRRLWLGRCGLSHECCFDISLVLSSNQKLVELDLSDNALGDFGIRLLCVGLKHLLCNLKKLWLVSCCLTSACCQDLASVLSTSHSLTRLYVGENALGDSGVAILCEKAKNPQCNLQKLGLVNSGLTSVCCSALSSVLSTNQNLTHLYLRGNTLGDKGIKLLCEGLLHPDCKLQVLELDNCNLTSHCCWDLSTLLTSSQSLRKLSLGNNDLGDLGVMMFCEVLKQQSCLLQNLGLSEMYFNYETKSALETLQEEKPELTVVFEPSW

A word on the IC50: it is the concentration that inhibits the measured activity by half. For the compound `O=C(Cn1c(=O)oc2ccccc21)NCc1cncc(-c2ccsc2)c1` [Compound C77], the “overexpression of inflammatory genes (NLRP3, IL1β, TNF-α, IL6) in mouse brain” value in data set [1] is “did not reduce the overexpression of these genes”. Also, in data set [2], the “concentrations with statistically significant inhibition of NLRP3 ATPase activity” value is ≥ 10 nM. Moreover, the IC50 in data set [2] (nonlinear fit) was 40 nM. For the same compound, in data set [3], the “expression of caspase-1” value was “slightly reduced the expression of caspase-1”; the “mRNA levels of IL-6, IL-8, or TNF-α” value was “did not modify the mRNA levels”; the “transcriptional priming of NLRP3 or IL-1β” value is “did not affect the transcriptional priming”. Besides, in the data set with microglia cultures (50 μM), the “toxicity on microglia cultures” value is listed as “significantly reduced the viability of the culture”. The “toxicity on microglia cultures” value in the data set on microglia cultures (concentrations lower than 50 μM) was “did not show significant toxicity levels”. Besides, in the data set on NLRP3 (setting [4]), the “IL-1β levels in the cerebellum” value is reported as “significantly reduced IL-1β levels”, the “IL-1β levels in the frontal cortex” value is given as “significantly reduced IL-1β levels”, the “IL-1β levels in the hippocampus” value was “significantly reduced IL-1β levels” and the “IL-18 levels in the frontal cortex” value is reported as “significantly reduced IL-18 levels”. For the same compound, the “cleaved IL-1β versus pro IL-1β by western blot” value with NLRP3 (frontal cortex of mice treated with C77-LPS) was “reduces the cleaved form of IL-β and not pro IL-1β”.
